Results: patent US20040171688A1, “Carboxylic acids and derivatives thereof and pharmaceutical compositions containing them” (priority 1997, published 2004)

Tests used:
[1] = biological target: T1, HNF-4α (Rattus norvegicus, UniProt P22449); experiment: In vitro transcription assay induced by His-HNF-4α with HeLa nuclear extract; type: biochemical; parameters: The full length HNF-4α1 cDNA cloned into 6His-pET11d vector was expressed in E.coli BL21 (DE3)plysS; 6His; made in house; host or cells: E. coli BL21 (DE3)plysS
T1 sequence (P22449 1-464 isoform P22449-2): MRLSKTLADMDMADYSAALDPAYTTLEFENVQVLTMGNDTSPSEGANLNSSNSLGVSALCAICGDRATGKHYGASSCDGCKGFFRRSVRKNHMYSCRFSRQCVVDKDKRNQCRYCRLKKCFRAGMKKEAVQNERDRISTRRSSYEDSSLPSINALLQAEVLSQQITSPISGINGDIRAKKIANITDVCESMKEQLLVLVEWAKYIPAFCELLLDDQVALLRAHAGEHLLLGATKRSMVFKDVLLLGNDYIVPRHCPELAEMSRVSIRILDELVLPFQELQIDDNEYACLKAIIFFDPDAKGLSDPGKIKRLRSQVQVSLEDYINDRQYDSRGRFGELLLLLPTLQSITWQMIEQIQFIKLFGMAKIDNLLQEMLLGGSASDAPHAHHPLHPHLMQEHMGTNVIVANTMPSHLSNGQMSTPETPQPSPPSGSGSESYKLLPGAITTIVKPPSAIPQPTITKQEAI
Procedure: a. Representative experiments showing in vitro transcription of the test template in the presence of increasing concentrations of His-HNF-4I and in the absence (lanes 1-3, 7-9) or presence of 10 μM of added palmitoyl(16:0)-CoA (lanes 4-6) or stearoyl(18:0)-CoA (lanes 10,11) as indicated. Correctly initiated transcripts of the test and control templates are denoted by (→) and ? , respectively.
b. HNF-4I-induced in vitro transcription in the absence (empty bars) or presence of 10 μM each of added palmitoyl(16:0)-CoA (filled bars) or stearoyl(18:0)-CoA (hatched bars). Fold transcription indicates the ratio of specific transcript produced by the test template over transcript from the control template normalized to the ratio observed without HNF-4a. The figure summarizes 5 independent experiments for each acyl-CoA. *-Significant as compared with the respective value in the absence of added ligand.
Reaction mixture contained 20 mM Hepes-KOH (pH 7.9), 5 mM MgCl2, 60 mM KCl, 8% glycerol, 2 mM DTT, 1 mM 3′-O-methyl-GTP, 10 units of T1RNase, 20 units of RNasin, 0.5 μg sonicated salmon sperm DNA and His-HNF-4α and test ligand as indicated. The mixture was preincubated for 30 min at 22° C. followed by adding 10 ng of pAdML200 control template consisting of the adenovirus major-late promoter (−400/+10) linked to a 200 bp G-less cassette and 200 ng of the test template consisting of three C3P copies of the apo CIII promoter sequence (−87/−66) upstream to a synthetic ovalbumin TATA box promoter in front of a 377 bp-G-less cassette. The mixture was further preincubated for 10 min at 22° C. followed by adding 40 μg of HeLa nuclear extract with additional preincubation for 30 min at 30° C. 0.5-mM ATP, 0.5 mM CTP, 25 μM UTP, and 10 μCi of [α-^32P]UTP (s.a. […], Amersham) were then added and the complete reaction mixture was incubated for 45 min at 30° C. in a final volume of 25 μl. The reaction was terminated by adding 175 μl of stop mix (0.1 M sodium acetate (pH 5.2), 10 mM EDTA, 0.1% SDS, 200 μg/ml tRNA) followed by phenol extraction and ethanol precipitation. RNA was resuspended in sample buffer containing 80% formamide and 10 mM Tris-HCl (pH 7.4) and separated on 5% polyacrylamide gel containing 7 M urea in TBE. Correctly initiated transcripts were quantitated by PhosphorImager analysis. The test DNA template was constructed by inserting into pC2AT19 plasmid a PCR-amplified oligonucleotide prepared by using the (C3P)3-TK-CAT plasmid as template and consisting of three copies of the C3P element of the Apo CIII promoter sequence (−87/−66) having an ECoRI and SSTI sites at the 5′ and 3′ ends, respectively. The resultant plasmid was cleaved with sphI and sacI and ligated to a synthetic oligonucleotide (5′-CGAGGTCCAC-[…]-3′) containing sequences of the HSV thymidine kinase promoter (−41/−29) and of the chicken ovalbumin promoter (−33/−21).
The effect of agonistic and antagonistic HNF-4α-ligands was further evaluated by analyzing the in vitro transcription rate, catalyzed by added HeLa nuclear extract and induced by recombinant HNF-4α, of a test template consisting of a 377 bp G-less cassette promoted by sequences of the HSV thymidine kinase and chicken ovalbumin promoters and enhanced by three C3P copies of the apo Clil gene promoter. Transcriptional activation by HNF-4α was evaluated in the presence and in the absence of added representative long chain fatty acyl-CoAs. […]

[2] = biological target: T2, HNF-4α (Rattus norvegicus, UniProt P22449); experiment: Ligand binding assay with [3H]palmitoyl(16:0)-CoA on recombinant GST-HNF-4α(LBD) or His-HNF-4α; conditions: for EC50: competition with 8 nM [3H]palmitoyl(16:0)-CoA, read-out: EC50 (50% specific competition)
T2 construct: GST-HNF-4α(LBD) fusion protein consisting of amino acids 96-455 of wild type HNF-4α fused to GST; fused on or other part: Glutathione-S-transferase (GST) at the N-terminus of the LBD construct; 6-histidine tag on the full-length construct
T2 sequence (P22449 105-464 isoform P22449-2 limits assumed): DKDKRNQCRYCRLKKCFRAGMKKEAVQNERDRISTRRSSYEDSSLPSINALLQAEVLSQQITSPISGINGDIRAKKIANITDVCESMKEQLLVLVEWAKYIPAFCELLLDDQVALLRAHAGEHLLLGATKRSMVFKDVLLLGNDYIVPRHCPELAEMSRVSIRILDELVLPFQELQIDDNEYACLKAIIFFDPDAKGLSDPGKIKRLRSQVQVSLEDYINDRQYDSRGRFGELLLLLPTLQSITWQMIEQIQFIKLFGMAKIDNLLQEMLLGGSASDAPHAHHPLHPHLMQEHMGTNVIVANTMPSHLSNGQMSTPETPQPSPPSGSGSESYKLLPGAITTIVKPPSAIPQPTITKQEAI
Procedure: a. […] The respective recombinant proteins are incubated to equilibrium with [^3H]palmitoyl(16:0)-CoA (0.05 μCi) and with increasing nonlabeled palmitoyl(16:0)-CoA as indicated.
b. […] The respective recombinant proteins are incubated with 8 nM of [^3H]palmitoyl(16:0)-CoA (60 Ci/mmol) and with increasing nonlabeled myristoyl(14:0)-CoA as indicated. Percent bound refers to radiolabeled [^3H]palmitoyl(16:0)-CoA in the bound fraction. […] Percent bound refers to radiolabeled [^3H]palmitoyl(16:0)-CoA in the bound fraction.
Rat HNF-4α1 cDNA(pLEN4S)^1 was subcloned into the glutathione-S-transferase (GST) encoding pGEX-2T plasmid (Pharmacia) and the resultant plasmid was cleaved with smaI and AccI and religated to yield the GST-HNF-4α(LBD) fusion plasmid. […] The full length HNF-4α1 cDNA cloned into 6His-pET11d vector was expressed in E.coli BL21 (DE3)plysS.
Recombinant GST-HNF-4α(LBD) (100 pmol) or His-HNF-4α (100 pmol) were incubated for 60 min at 22° C. with [^3H]palmitoyl(16:0)-CoA (American RadiolabeledChemicals) in 100 μl of 10 mM phosphate buffer (pH 7.4). Competitor ligands or solvent carrier were added as indicated. Free and HNF-4α bound ^3[H]palmitoyl(16:0)-CoA were separated by […] and bound ligand was quantified by liquid scintillation counting. Nonspecific binding of [^3H]palmitoyl(16:0)-CoA was determined by its binding to the GST moiety or to carbonic anhydrase as nonrelevant protein.
Binding was exemplified with either the ligand binding domain of HNF-4α fused to glutathione-s-transferase (GST-HNF-4α(LBD)) or the full length HNF-4α protein tagged by 6 histidines (His-HNF-4α).

[3] = biological target: T1, HNF-4α; experiment: Gel mobility shift assay: His-HNF-4α binding to C3P apo CIII promoter oligonucleotide; type: biochemical; parameters: The full length HNF-4α1 cDNA cloned into 6His-pET11d vector was expressed in E.coli BL21 (DE3)plysS; 6His; made in house; host or cells: E. coli BL21 (DE3)plysS; conditions: for direct effect on HNF-4α (summary): summary statement of Example 4
Procedure: a. His-HNF-4I (14 ng) binding to C3P in the absence (lane 1) or presence of 10 μM each of myristoyl(14:0)-CoA (lane 2) or palmitoyl(16:0)-CoA (lane 3).
b. His-HNF-4I (20 ng) binding to C3P in the absence (lane 1) or presence of 10 μM each of stearoyl(18:0)-CoA (lane 2) or linolenoyl(18:3, w-3)-CoA (lane 3).
c. Activation of His-HNF-4I (14 ng) binding to C3P by increasing concentrations of myristoyl(14:0)-CoA. The gel section containing radiolabeled C3P bound to His-HNF-4I dimer is shown.
His-HNF-4α and acyl-CoA (as indicated) were preincubated for 30 min at 22° C. in 11 mM Hepes (pH 7.9) containing 50 mM KCl, 1 mM dithiothreitol. 2.5 mM MgCl2, 10% glycerol, 1 μg of poly(dI-dC) in a final volume of 20 μl. ^32P-labeled oligonucleotide (0.1 ng) consisting of the human C3P apo CIII promoter sequence,(−87/−66)^6 was then added, and incubation was continued for an additional 15 min. Protein-DNA complexes were resolved by 5% nondenaturing polyacrylamide gel in 0.6×TBE and quantitated by PhosphorImager analysis.
HNF-4α activity as a function of binding of long chain acyl-CoAs was evaluated by studying the binding of HNF-4α to its cognate C3P element of the apo CIII promoter sequence (−87/−66)^6 in the presence or absence of added acyl-CoAs of variable chain length, degree of saturation, and degree of substitution. Binding was verified by using a gel mobility shift assay. […] Activation was concentration dependent and maximal in the presence of myristoyl(14:0)-CoA added within a concentration range required for its binding to HNF-4α.

Q: What does the source list for CCCCCCCCCCCCCCCC(=O)SCCNC(=O)CCNC(=O)[C@H](O)C(C)(C)COP(=O)(O)OP(=O)(O)OC[C@H]1O[C@@H](n2cnc3c(N)ncnc32)[C@H](O)[C@@H]1OP(=O)(O)O [Palmitoyl(16:0)-CoA, reference compound]?
A: effect on HNF-4α induced in vitro transcription ([1]; 10 μM added acyl-CoA (FIG. 3)): activated; HNF-4α transcriptional activity, agonist/antagonist character (summary) ([1]; summary statement of Example 4): activators; maximal binding ([2]; Scatchard analysis): 1 mol palmitoyl(16:0)-CoA/mol HNF-4I; binding ratio at saturation ([2]; at saturation (FIG. 1A)): ~1 mole of fatty acyl-CoA/mole of HNF-4α; EC50 ([2]; GST-HNF-4α(LBD) or His-HNF-4α): 2600 nM; Kd ([2]; saturation binding of [3H]palmitoyl(16:0)-CoA, Scatchard analysis, GST-HNF-4α(LBD) or His-HNF-4α, read-out: dissociation constant (Kd)): 2600 nM

Q: Which results are given for CC/C=C\C/C=C\C/C=C\C/C=C\C/C=C\CCCC(=O)SCCNC(=O)CCNC(=O)[C@H](O)C(C)(C)COP(=O)(O)OP(=O)(O)OC[C@H]1O[C@@H](n2cnc3c(N)ncnc32)[C@H](O)[C@@H]1OP(=O)(O)O [Eicosapentaenoyl(20:5)-CoA]?
A: direct effect on HNF-4α (summary) [3]: direct inhibition; EC50 ([2]; GST-HNF-4α(LBD) or His-HNF-4α): 600 nM

Q: Which “direct effect on HNF-4α (summary)” value [3] does the source give for CC/C=C\C/C=C\C/C=C\C/C=C\C/C=C\C/C=C\CCC(=O)SCCNC(=O)CCNC(=O)[C@H](O)C(C)(C)COP(=O)(O)OP(=O)(O)OC[C@H]1O[C@@H](n2cnc3c(N)ncnc32)[C@H](O)[C@@H]1OP(=O)(O)O [Docosahexaenoyl(22:6)-CoA] here?
A: direct inhibition

Q: What about the EC50 ([2]; GST-HNF-4α(LBD) or His-HNF-4α) of the same molecule?
A: 1600 nM

Q: What does the source list for CC/C=C\C/C=C\C/C=C\CCCCCCCC(=O)SCCNC(=O)CCNC(=O)[C@H](O)C(C)(C)COP(=O)(O)OP(=O)(O)OC[C@H]1O[C@@H](n2cnc3c(N)ncnc32)[C@H](O)[C@@H]1OP(=O)(O)O [Linolenoyl(18:3)-CoA]?
A: effect on His-HNF-4α binding to C3P oligonucleotide ([3]; gel mobility shift, 10 μM acyl-CoA (FIG. 2)): potent inhibition; direct effect on HNF-4α (summary) [3]: direct inhibition
